Assay results reported in US20070225242A1, “Method and composition for treating and preventing tumor metastasis in vivo” (The Board of Trustees of the Leland Stanford Junior …, priority 2005, published 2007).

How the values were obtained:
[1] = system: LOX; assay: LOX fluorescent activity assay, in vivo (plasma of treated tumor-bearing mice); conditions: BAPN-treated and antibody-treated mice, terminal bleeds
From the text: LOX activity may be measured in a number of ways, using a soluble elastin or soluble collagen with labeled lysine as a substrate. Details of an activity assay are given in Royce et al., “Copper metabolism in mottled mouse mutants. The effect of copper therapy on lysyl oxidase activity in brindled (Mobr) mice,” Biochem J. 1982 Feb. 15; 202(2): 369-371. Especially preferred is a […] assay. One is described in Palamakumbura, et al. “A fluorometric assay for detection of lysyl oxidase enzyme activity in biological samples,” Anal Biochem. 2002 Jan. 15; 300(2):245-51. This method was used in the present work to assess LOX inhibition by BAPN and by anti-LOX antibody in cells in culture (using conditioned media) and in mice (using plasma), in a 96-well format.
LOX activity assay. The original method is described in Folgelgren, et al. J. Biol. Chem. 280:24690-24697 (2005). For the in vivo data, terminal bleeds were taken at the end of the experiment described above from untreated (control) mice, 2 and 3 wk BAPN mice, and antibody-treated mice. […] For the in vitro data, 50 μl of conditioned phenol-red-free medium was taken from cells incubated for 24 h under conditions of hypoxia. Samples were incubated overnight at 37° C. with different concentrations of BAPN or with purified LOX antibody at a concentration equivalent to 20 mg kg^−1 dose. Again, 0=fluorescent reading for 500 μM BAPN.

[2] = system: fibronectin null mouse embryonic fibroblasts; assay: In vitro invasion of fibronectin null cells; type: cell-based
Method: FIG. 8 is a graph (A) showing fibronectin null mouse embryonic fibroblasts subjected to in vitro invasion assays; untreated invasion was compared with that of cells transfected with LOX antisense oligos (Antisense) or incubated with BAPN, and (B) Adhesion of SiHa cells expressing DSRED to matrix was assessed over time.
A role for fibronectin (FN) was sought, because it was strongly associated with LOX expression in the breast cancer microarray data set that was analyzed (data not shown), is reported to regulate invasion, bind to integrins and interact with LOX, and is hypoxia induced. […] FAK phosphorylation could be induced in the cells expressing LOX shRNA by transfection with mature LOX (but not catalytically dead LOX), confirming a role for LOX in FAK phosphorylation. […] It is proposed here that this is because LOX increases fibrillar collagen, which is a ligand for b1 integrin. Other integrin pathways have been reported to mediate hypoxia-induced invasion.

[3] = system: FAK; assay: FAK phosphorylation (phospho-FAK immunoblot); type: cell-based; conditions: cells expressing LOX shRNA transfected with mature LOX
From the text: Acquisition of motility is required before cells can migrate and invade. Invasive cell migration is a multi-step process^17 that commences with pseudopod protrusion at the leading edge driven by actin polymerization, resulting in focal adhesion formation and the activation of integrin and focal adhesion kinase (FAK). […] LOX protein expression extended along hairlike fibers protruding from the cell surface into the collagen matrix. […] Remodeling of the actin cytoskeleton with increased formation of stress fibers and focal adhesion in MDA231 control cells particularly in hypoxia was observed, which were not seen in cells expressing LOX shRNA.
A role for fibronectin (FN) was sought, because it was strongly associated with LOX expression in the breast cancer microarray data set that was analyzed (data not shown), is reported to regulate invasion, bind to integrins and interact with LOX, and is hypoxia induced. […] FAK phosphorylation could be induced in the cells expressing LOX shRNA by transfection with mature LOX (but not catalytically dead LOX), confirming a role for LOX in FAK phosphorylation. […]
Methods were performed as previously described. […] LOX was analyzed by using a rabbit polyclonal antibody raised against a synthetic peptide of human LOX (EDTSCDYGYHRRFA (SEQ ID NO:1); Open Biosystems). […] Quantification was performed with ImageQuant software.

N#CCCN [BAPN, β-aminoproprionitrile]
LOX activity levels in the blood [1]: Reduced LOX activity levels | invasion of FN-null cells [2]: strongly inhibited invasion (similarly to BAPN addition) | FAK phosphorylation induced by transfection with mature LOX [3]: could be prevented
